Laboratory results taken from patent publication US20260274861A1, “FUSED RING COMPOUND, PREPARATION METHOD THEREFOR AND MEDICINAL APPLICATION THEREOF” (JIANGSU HENGRUI PHARMACEUTICALS CO., LTD., priority 2022, published 2026).

Legend:
[1] = system: GP2d cells; test: Inhibition of 3D proliferation of GP2d cells (CellTiter-Glo 3D); format: cell-based; conditions: 120 h, 5 days
Method: (§1) The inhibitory effects of the compounds of the present disclosure on the KRAS target were evaluated by assessing the inhibitory effects of the compounds of the present disclosure on the 3D proliferation of GP2d and AGS cells.
(§2) GP2d cells were cultured in a complete culture medium, namely a DMEM/high glucose culture medium (Hyclone, SH30243.01) containing 10% fetal bovine serum (Corning, 35-076-CV). On the first day of the experiment, the GP2d cells were seeded into a 96-well low-adsorption plate (Corning, CLS7007-24EA) with a complete culture medium at a density of 1000 cells/well, with each well containing 90 μL of a cell suspension. The plate was centrifuged at 2000 rpm for 5 min at room temperature and then incubated overnight in a 37° C., 5% CO2 cell incubator.
(§3) The next day, the test compounds, serially diluted in a complete culture medium, were added at 10 μL/well. The final concentrations of the compounds for GP2d cells were 9 concentration points obtained by 5-fold serial dilution from 1 μM, and the final concentrations of the compounds for AGS cells were 9 concentration points obtained by 5-fold serial dilution from […]. A blank control containing 0.5% DMSO was set for both types of cells. The plates were incubated in a 37° C., 5% CO2 cell incubator for 5 days. On the seventh day, the 96-well cell culture plates were taken out, and 50 μL of the CellTiter-Glo® 3D Cell Viability Assay reagent (Promega, G^9682) was added to each well. The plates were shaken at room temperature in the dark for 25 min. The contents in the wells were pipetted for good uniformity, and 100 μL of the mixture was transferred from each well to a white impermeable 96-well plate (PerkinElmer, 6005290). The luminescence signal values were obtained using a multi-mode microplate reader (PerkinElmer, EnVision2105).

[2] = system: ERK phosphorylation in AGS cells; test: Inhibition of ERK phosphorylation in AGS cells (HTRF method); format: cell-based; conditions: Homo sapiens, 1 h incubation
Method: In the experiment, the inhibitory effects of the compounds of the present disclosure on the KRAS target were evaluated by assessing the inhibitory effects of the compounds on ERK phosphorylation in cells and based on IC50 values.
AGS cells were cultured in an RPMI1640 (Hyclone, SH30809.01) complete culture medium containing 10% fetal bovine serum. On the first day of the experiment, the AGS cells were seeded into a 96-well plate with a complete culture medium at a density of 40,000 cells/well, with each well containing 190 μL of a cell suspension. The plate was incubated overnight in a 37° C., 5% CO2 cell incubator.
The next day, the test compounds, serially diluted in a complete culture medium, were added at 10 μL/well. The final concentrations of the compounds were 9 concentration points obtained by 5-fold serial dilution from 10 μM. A blank control containing 0.5% DMSO was set. The plate was incubated in a 37° C., 5% CO2 cell incubator for 1 h. After the incubation, the 96-well cell culture plate was taken out, and the culture medium was removed using a pipette. The plate was washed once by adding 200 μL of PBS (Shanghai BasalMedia Technologies Co., Ltd., B320) to each well. The PBS was removed using a pipette, and 50 μL of a lysis buffer (Cisbio, 64KL1FDF) containing a blocking reagent (Cisbio, 64KB1AAC) was added to each well. The plate was shaken on a shaker at room temperature for 40 min for lysis. After lysis, the lysate was pipetted for good uniformity. […]
On the third day, the fluorescence values at an excitation wavelength of 337 nm and emission wavelengths of 665 nm and 620 nm were obtained using a multi-mode microplate reader (PerkinElmer, EnVision).
The ratio of the fluorescence signal at 665 nm to the fluorescence signal at 620 nm was calculated for phosphorylated ERK1/2 and total ERK1/2 for the compounds at various concentrations, and IC50 values for the inhibitory activity of the compounds were calculated using Graphpad Prism software based on the concentrations of the compounds and the phosphorylated ERK1/2 ratios corrected using the total ERK1/2 ratios.

[3] = system: AGS cells; test: Inhibition of 3D proliferation of AGS cells (CellTiter-Glo 3D); format: cell-based; conditions: Homo sapiens, 120 h, 5 days
Method: as §1
as §2, with “AGS” for “GP2d”, “an RPM11640” for “a DMEM/high glucose culture”, “SH30809.01)” for “SH30243.01)”
as §3

[4] = Pharmacokinetic evaluation in balb/c nude mice after intragastric administration; format: in vivo; conditions: female, mouse, po, i.g., 40.0 mg/kg, plasma; for Vd/F: read-out: Apparent distribution volume Vz/F; for AUC(0-t): read-out: Area under curve AUC0-t; for CL/F: read-out: Clearance rate CL/F; for half-life: read-out: Half-life T½ (converted); for Cmax: read-out: Plasma concentration Cmax
Method: Balb/c nude mice were used as test animals. After intragastric (i.g.) administration of example compounds to balb/c nude mice, the plasma concentrations at different time points were determined by the LC/MS/MS method. The pharmacokinetic behavior of the compounds of the present disclosure in balb/c nude mice was studied, and their pharmacokinetic profiles were evaluated.
Eighteen female balb/c nude mice, provided by Vital River Laboratory Animal Technology Co., Ltd. with production license SCXK (Zhejiang) 2019-0001, were evenly divided into 2 groups.
A certain amount of a test compound was weighed out, and 5% DMF+45% PG+50% (10% HS15-pH 7.4 buffer)+400 mpk SNAC was added to prepare a 4 mg/mL colorless clear solution.
The dose administered was 40.0 mg/kg, and the volume was 10 mL/kg.
0.1-mL blood samples were collected from the orbit before administration and 0.25 h, 0.5 h, 1.0 h, 2.0 h, 4.0 h, 6.0 h, 8.0 h, 11.0 h, and 24.0 h after administration. The blood samples were placed into EDTA-K2 anticoagulation test tubes and centrifuged at 10,000 rpm for 1 min (4° C.), and plasma was separated within 1 h and stored at −20° C. before analysis. The procedure starting from the blood collection to the centrifugation was performed under ice-bath conditions.
After administration of different concentrations of the test compounds, the plasma concentration of the test compounds in balb/c nude mice was determined: A 25-μL sample of the balb/c nude mouse plasma of each time point after administration was taken, and 200 μL of acetonitrile containing an internal standard (for compound 37, the internal standard was 100 ng/mL verapamil; for compound 39, the internal standard was 100 ng/mL diclofenac) was added. The mixture was vortexed for 5 min and centrifuged at 3700 rpm for 20 min, and the supernatant was mixed with water (1:1). 0.5-2 μL of the supernatant was taken and analyzed by LC/MS/MS. 4. Pharmacokinetic parameters

[5] = system: AsPC-1 cells; test: Inhibition of 3D proliferation of AsPC-1 cells (CellTiter-Glo 3D); format: cell-based; conditions: Homo sapiens, ASPC1, 120 h, 5 days
Method: On the first day of the experiment, well-grown AsPC-1 cells with 70%-80% confluency were digested and resuspended in an RPMI 1640 culture medium (Hyclone, SH30809.01) containing 10% FBS, and the cell density was adjusted to the desired level. The cell suspension was added to a U-shaped low-adsorption 96-well plate (Corning, CLS7007-24EA) at 90 μL/well, with a cell density of 1500 cells/well. The cell plate was centrifuged at 2500 rpm for 5 min and then incubated overnight in a 37° C., 5% CO2 incubator. The next day, 20 mM test compounds dissolved in DMSO were diluted to an initial concentration of 2 mM and then serially diluted 5-fold, and a total of 9 concentration points were obtained. Control wells were set using DMSO. The serially diluted compounds were then further diluted 20-fold with a culture medium. The test compounds, diluted with the culture medium, were added to the cell plate at 10 μL/well, with the final concentrations of the compounds being 9 concentration points obtained by 5-fold serial dilution from an initial concentration of 10 μM. Cell wells containing 0.5% DMSO were set as vehicle control wells, and wells containing only the culture medium and 0.5% DMSO were set as blank control wells. A duplicate well was set for each concentration of the compounds and the control wells, with the final concentration of DMSO in each well being 0.5%. The cell plate was centrifuged at 2500 rpm for 3 min and then incubated in a 37° C., 5% CO2 incubator for 5 days. On the seventh day, the 96-well cell culture plate was taken out, and 50 μL of the CellTiter-Glo® Luminescent 3D Cell Viability Assay reagent (Promega, G^9683) was added to each well. The plates were shaken at room temperature in the dark for 25 min. The contents in the wells were pipetted up and down for good uniformity, and then 100 μL of the mixture was transferred from each well to a white impermeable OptiPlate™-96-well plate (PerkinElmer, 6005290). The luminescence signal values were obtained using a multi-mode microplate reader (PerkinElmer, EnVision2105).
The inhibition rate was calculated using the formula: inhibition rate=(luminescence valuevehicle control well−luminescence valuetest compound)/(luminescence valuevehicle control well−luminescence valueblank control well)×100%. Curves were plotted using GraphPad Prism software based on the various concentrations of the compounds and the corresponding inhibition rates, and IC50 values for the compounds were calculated.

Row | Compound | IC50 [1] | IC50 [2] | IC50 [3] | Vd/F [4] | AUC(0-t) [4] | CL/F [4] | half-life [4] | Cmax [4] | IC50 [5]
1 | CCc1c(F)ccc2cc(O)cc(-c3nc4c5c(nc(OCC6(CN7CCOCC7)CC6)nc5c3F)N3C[C@H]5CC[C@H](N5)[C@H]3CO4)c12 [Example 1, 5-Ethyl-6-fluoro-4-((5aS,6S,9R)-1-fluoro-12-((1-(morpholinomethyl)cyclopropyl)methoxy)-5a,6,7,8,9,10-hexahydro-5H-4-oxa-3,10a,11,13,14-pentaaza-6,9-methanonaphtho[1,8-ab]heptalen-2-yl)naphthalen-2-ol] | 5.2 nM | 0.96 nM | 16.7 nM |  |  |  |  |  | 
2 | CCc1c(F)ccc2cc(O)cc(-c3nc4c5c(nc(OCC6(CN7C[C@H]8C[C@@H]7CO8)CC6)nc5c3F)N3C[C@H]5CC[C@H](N5)[C@H]3CO4)c12 [Example 3, 4-((5aS,6S,9R)-12-((1-(((1R,4R)-2-Oxa-5-azabicyclo[2.2.1]heptan-5-yl)methyl)cyclopropyl)methoxy)-1-fluoro-5a,6,7,8,9,10-hexahydro-5H-4-oxa-3,10a,11,13,14-pentaaza-6,9-methanonaphtho[1,8-ab]heptalen-2-yl)-5-ethyl-6-fluoronaphthalen-2-ol] |  | 1.2 nM |  |  |  |  |  |  | 
3 | CCc1c(F)ccc2cc(O)cc(-c3nc4c5c(nc(OCC6(CN7C[C@@H]8C[C@H]7CO8)CC6)nc5c3F)N3C[C@H]5CC[C@H](N5)[C@H]3CO4)c12 [Example 2, 4-((5aS,6S,9R)-12-((1-(((15,4S)-2-Oxa-5-azabicyclo[2.2.1]heptan-5-yl)methyl)cyclopropyl)methoxy)-1-fluoro-5a,6,7,8,9,10-hexahydro-5H-4-oxa-3,10a,11,13,14-pentaaza-6,9-methanonaphtho[1,8-ab]heptalen-2-yl)-5-ethyl-6-fluoronaphthalen-2-ol] |  | 1.5 nM |  |  |  |  |  |  | 
4 | C[C@@H]1Oc2nc(-c3cc(N)cc(Cl)c3C(F)(F)F)c(F)c3nc(OCC4(CN5CCC(=C(F)F)CC5)CC4)nc(c23)N2C[C@H]3CC[C@H](N3)[C@@H]12 [Example 39, 3-Chloro-5-((5S,5aS,6S,9R)-12-((1-((4-(difluoromethylene)piperidin-1-yl)methyl)cyclopropyl)methoxy)-1-fluoro-5-methyl-5a,6,7,8,9,10-hexahydro-5H-4-oxa-3,10a,11,13,14-pentaaza-6,9-methanonaphtho[1,8-ab]heptalen-2-yl)-4-(trifluoromethyl)aniline] | 0.17 nM |  | 6.7 nM | 64.2 L/kg | 7210 ng·h/mL | 73.7 mL/min/kg | 10.1 h | 578 ng/mL | 2.6 nM
5 | C[C@@H]1Oc2nc(-c3ccc(F)c4sc(N)c(C#N)c34)c(F)c3nc(OCC4(CN5CCC(=CF)CC5)CC4)nc(c23)N2C[C@H]3CC[C@H](N3)[C@@H]12 [Example 37, 2-Amino-7-fluoro-4-((5S,5aS,6S,9R)-1-fluoro-12-((1-((4-(fluoromethylene)piperidin-1-yl)methyl)cyclopropyl)methoxy)-5-methyl-5a,6,7,8,9,10-hexahydro-5H-4-oxa-3,10a,11,13,14-pentaaza-6,9-methanonaphtho[1,8-ab]heptalen-2-yl)benzo[b]thiophene-3-carbonitrile] | 0.4 nM |  | 4.7 nM | 78 L/kg | 5260 ng·h/mL | 113 mL/min/kg | 7.95 h | 699 ng/mL | 2.4 nM
